Test results from patent publication US8680052B1, “Methods of treating, reducing the incidence of, and/or preventing ischemic events” (The Medicines Company, priority 2013, dated 2014).
Like-named read-outs stand apart in the source and are kept apart here.

Test system: patients undergoing percutaneous coronary intervention (PCI)
Settings: for Mortality/Q-wave MI/IDR / Mortality/Q-wave MI/Stent thrombosis: exploratory
[1] = 30-day, ITT, cangrelor vs comparator arm
[2] = 30-day, MITT, cangrelor vs comparator arm
[3] = 30-day, Safety population, cangrelor vs comparator arm
[4] = 48-hour, ITT, cangrelor vs comparator arm

Method: The diagnosis of non-ST-segment elevation myocardial infarction required troponin I or T greater than the upper limit of normal within 24 hours of randomization (or if troponin results were unavailable at that time, creatine kinase-myocardial band isoenzyme [CK-MB] greater than the upper limit of normal). The diagnosis of unstable angina required ischemic chest discomfort occurring at rest and lasting ≧10 minutes within the 24 hours prior to randomization and dynamic electrocardiographic changes; age ≧65 years and/or diabetes mellitus were also required.
The primary efficacy endpoint was the composite of mortality, myocardial infarction, or ischemia-driven revascularization at 48 hours. The primary analysis was performed on a modified intent-to-treat population. Confirmatory analyses were performed on an intent-to-treat population. Secondary endpoints included the individual rates of mortality, myocardial infarction, new Q-wave myocardial infarction, ischemia-driven revascularization, abrupt vessel closure, or stroke at 48 hours. Mortality at 30 days and 1 year was also recorded. The clinical events committee adjudicated myocardial infarction, Q-wave myocardial infarction, ischemia-driven revascularization, stent thromboses, and stroke (ischemic or hemorrhagic). The definition of stent thrombosis was similar to the Academic Research Consortium definition of definite stent thrombosis. After review of the prespecified analyses, two exploratory endpoints less reliant on periprocedural biomarker ascertainment were examined. The exploratory endpoints, which were composed of prespecified and adjudicated endpoints, were the composite of mortality, Q-wave myocardial infarction, or ischemia-driven revascularization and the composite of mortality, Q-wave myocardial infarction, or stent thrombosis. Bleeding and adverse events through 48 hours were compared.
All efficacy analyses were performed on the modified intent-to-treat population, defined as all randomized patients who received at least one dose of study drug and underwent the index PCI. All safety-related analyses were performed on the safety population, which included all patients who received at least one dose of assigned study drug. Patients in the safety analyses were assigned to a treatment arm based on treatment actually received, not as randomized. Intent-to-treat analyses are also presented for full disclosure of results. All statistical tests were two-tailed using a level of significance of 0.05. […] Logistic regression was also used to analyze the majority of the remaining secondary endpoints.

CSCCNc1nc(SCCC(F)(F)F)nc2c1ncn2[C@@H]1O[C@H](COP(=O)(O)OP(=O)(O)C(Cl)(Cl)P(=O)(O)O)[C@@H](O)[C@H]1O [Cangrelor, cangrelor]
All-cause mortality (30-day, ITT): 36 (1.3) no. (%)
IDR (30-day, ITT): 37 (1.4) no. (%)
MI (30-day, ITT): 190 (7.1) no. (%)
Mortality/MI/IDR (30-day, ITT): 230 (8.6) no. (%)
Q-wave MI (30-day, ITT): 8 (0.3) no. (%)
Stent thrombosis (30-day, ITT): 15 (0.6) no. (%)
OR (95% CI): All-cause mortality [1]: 0.754 (0.487, 1.167)
OR (95% CI): IDR [1]: 0.743 (0.483, 1.142)
OR (95% CI): MI [1]: 0.924 (0.752, 1.135)
OR (95% CI): Mortality/MI/IDR [1]: 0.885 (0.734, 1.067)
OR (95% CI): Mortality/Q-wave MI/IDR [1]: 0.718 (0.524, 0.984)
OR (95% CI): Mortality/Q-wave MI/Stent thrombosis [1]: 0.648 (0.453, 0.927)
OR (95% CI): Q-wave MI [1]: 0.526 (0.222, 1.242)
OR (95% CI): Stent thrombosis [1]: 0.508 (0.272, 0.950)
Mortality/Q-wave MI/IDR (30-day, ITT): 69 (2.6) no. (%)
Mortality/Q-wave MI/Stent thrombosis (30-day, ITT): 51 (1.9) no. (%)
All-cause mortality (30-day, MITT): 33 (1.2) no. (%)
IDR (30-day, MITT): 37 (1.4) no. (%)
MI (30-day, MITT): 189 (7.1) no. (%)
Mortality/MI/IDR (30-day, MITT): 226 (8.5) no. (%)
Q-wave MI (30-day, MITT): 8 (0.3) no. (%)
Stent thrombosis (30-day, MITT): 15 (0.6) no. (%)
OR (95% CI): All-cause mortality [2]: 0.725 (0.461, 1.140)
OR (95% CI): IDR [2]: 0.796 (0.515, 1.231)
OR (95% CI): MI [2]: 0.929 (0.756, 1.142)
OR (95% CI): Mortality/MI/IDR [2]: 0.892 (0.739, 1.078)
OR (95% CI): Mortality/Q-wave MI/IDR [2]: 0.730 (0.528, 1.008)
OR (95% CI): Mortality/Q-wave MI/Stent thrombosis [2]: 0.647 (0.447, 0.935)
OR (95% CI): Q-wave MI [2]: 0.566 (0.237, 1.352)
OR (95% CI): Stent thrombosis [2]: 0.529 (0.282, 0.993)
Mortality/Q-wave MI/IDR (30-day, MITT): 66 (2.5) no. (%)
Mortality/Q-wave MI/Stent thrombosis (30-day, MITT): 48 (1.8) no. (%)
All-cause mortality (30-day, Safety population): 34 (1.3) no. (%)
IDR (30-day, Safety population): 37 (1.4) no. (%)
MI (30-day, Safety population): 188 (7.1) no. (%)
Mortality/MI/IDR (30-day, Safety population): 226 (8.5) no. (%)
Q-wave MI (30-day, Safety population): 8 (0.3) no. (%)
Stent thrombosis (30-day, Safety population): 15 (0.6) no. (%)
OR (95% CI): All-cause mortality [3]: 0.747 (0.477, 1.170)
OR (95% CI): IDR [3]: 0.779 (0.504, 1.202)
OR (95% CI): MI [3]: 0.913 (0.743, 1.122)
OR (95% CI): Mortality/MI/IDR [3]: 0.884 (0.732, 1.067)
OR (95% CI): Mortality/Q-wave MI/IDR [3]: 0.732 (0.531, 1.010)
OR (95% CI): Mortality/Q-wave MI/Stent thrombosis [3]: 0.651 (0.452, 0.938)
OR (95% CI): Q-wave MI [3]: 0.528 (0.224, 1.248)
OR (95% CI): Stent thrombosis [3]: 0.529 (0.282, 0.993)
Mortality/Q-wave MI/IDR (30-day, Safety population): 67 (2.5) no. (%)
Mortality/Q-wave MI/Stent thrombosis (30-day, Safety population): 49 (1.8) no. (%)
All-cause mortality (48-hour, ITT): 8 (0.3) no. (%)
IDR (48-hour, ITT): 19 (0.7) no. (%)
MI (48-hour, ITT): 177 (6.6) no. (%)
Mortality/MI/IDR (48-hour, ITT): 187 (6.9) no. (%)
Q-wave MI (48-hour, ITT): 4 (0.1) no. (%)
Stent thrombosis (48-hour, ITT): 5 (0.2) no. (%)
Stroke (48-hour, ITT): 7 (0.3) no. (%)
OR (95% CI): All-cause mortality [4]: 0.415 (0.181, 0.950)
OR (95% CI): IDR [4]: 0.721 (0.398, 1.307)
OR (95% CI): MI [4]: 0.906 (0.734, 1.120)
OR (95% CI): Mortality/MI/IDR [4]: 0.859 (0.701, 1.054)
OR (95% CI): Mortality/Q-wave MI/IDR [4]: 0.558 (0.341, 0.915)
OR (95% CI): Mortality/Q-wave MI/Stent thrombosis [4]: 0.409 (0.224, 0.749)
OR (95% CI): Q-wave MI [4]: 0.439 (0.135, 1.428)
OR (95% CI): Stent thrombosis [4]: 0.308 (0.113, 0.842)
OR (95% CI): Stroke [4]: 1.155 (0.388, 3.442)
